The results in this text go back to patent US20210369691A1, “METHODS AND COMPOSITIONS FOR IMPROVING BONE MARROW HEMATOPOIETIC FUNCTIONS” (Sun Yat-Sen University, priority 2018, published 2021).

Assay type in all cases: in vivo, mice
The subject of test [1] is hematopoietic stem cells. The experiment in a line: Hematopoietic stem cell number in bone marrow after 5FU injury with ABC294640 treatment. The following applies: vs solvent control. The protocol:
In order to calculate the number of hematopoietic stem cells in mice, statistical quantification was performed for the number of hematopoietic stem cells using the molecular marker system Lin^−Sca1^+c-Kit^+CD150^+CD48^−, in combination with flow cytometry. Briefly, 2 million bone marrow cells were resuspended in 100 μl PBS, and 2 μl of a combination of anti-Lin, anti-Sca-1, anti-c-Kit, anti-CD150 and anti-CD48 was added. Samples were kept on ice for 1 h and washed with 1 ml of PBS, then resuspended with […] of PBS for flow cytometry analysis to determine the number of hematopoietic stem cells in the mouse bone marrow. T-test analysis was carried out using Graphpad6.0, and the difference was considered statistically significant when P<0.05. Twenty 8-week-old C57 mice (purchased from Laboratory Animal Center, Sun Yat-sen University) were injected intraperitoneally with 5FU at a dose of 150 mg/kg, respectively. After 5FU treatment, control mice (10 mice) were injected with a solvent control solution (1:1 physiological saline: PEG400) and the SphK2 inhibitor treatment mice (10 mice) were injected with the SphK2 inhibitor ABC294640. Briefly, 5FU was injected on day 1, and the inhibitor and solvent control solution were injected on day 2 and every other day, for five times in total. […] The SphK2 inhibitor ABC294640 was purchased from Selleck and dissolved in dimethyl sulfoxide (DMSO), it was then diluted with a mixture solution of polyethylene glycol 400 (PEG400) and physiological saline (1:1), and was injected to the mice with a dose of 10 mg/kg. T-test analysis was carried out using Graphpad6.0, and the differences were considered statistically significant when P<0.05.

Test [2] concerns white blood cells. The experiment in a line: White blood cell recovery in peripheral blood after 5FU. The following applies: after 5FU 150 mg/kg once; ABC294640 10 mg/kg every other day; days 0, 1, 5, 11; vs solvent control; FIG. 5. The method, then:
Preparation of the SphK2 inhibitor was as described in Example 4. Twelve 8-week-old C57 mice purchased from Laboratory Animal Center, Sun Yat-sen University were selected and divided evenly into two groups. The mice were intraperitoneally injected with 5FU at a dose of 150 mg/kg once. The injection of the inhibitor ABC294640 and the solvent control solution was as described in Example 4, which started from the day after 5-fluorouracil injection, followed by injections once every other day, at a dose of 10 mg/kg, until the end of the experiment. Periphery blood (PB) of each mouse was separately collected to determine white blood cell (WBC) counts 0, 1, 5 and 11 days after 5-FU administration. T-test analysis was carried out using Graphpad6.0, and differences were considered statistically significant when P<0.05.

Test [3] relates to white blood cells. The experiment in a line: White blood cell recovery after bone marrow transplantation. The following applies: 7-35 days after bone marrow transplantation; ABC294640 10 mg/kg every other day; vs solvent control. The protocol:
Twenty-five 8-week-old C57 mice (purchased from Laboratory Animal Center, Sun Yat-sen University) were selected and kept in a specific pathogen free (SPF) environment. 5 mice were randomly selected and sacrificed by cervical dislocation. Femurs and tibias were taken and the bone marrow was obtained from the bone marrow cavity with an 1 ml syringe. Bone marrow was dispersed to form a single cell suspension and lysed with red blood cell lysis buffer for 2 min to remove red blood cells, followed by filtering through a 70 μm filter screen to obtain a single cell suspension. The other 20 mice were treated with X-ray radiation at a dose of 900 cGy, and were injected with 400,000 of the prepared bone marrow single cell suspension via tail vein, respectively. Then, the recipient mice were divided evenly into 2 groups, and mice of the ABC294640 treatment group were subjected to intraperitoneal injection of ABC294640 every other day. Mice in the control group was injected with a solvent solution control (1:1 of physiological saline: PEG400) solution. ABC294640 was purchased from Selleck and dissolved in dimethyl sulfoxide (DMSO), and diluted with a mixture solution of polyethylene glycol 400 (PEG400) and physiological saline (1:1) to be administered at a dose of 10 mg/kg.
Preparation of SphK2 inhibitors was as described in Example 10. […]

Setting [4] is: day 14 post 5FU treatment, FIG. 26.

As to `O=C(NCc1ccncc1)C12CC3CC(C1)CC(c1ccc(Cl)cc1)(C3)C2` [ABC294640, 3-(4-chloro-phenyl)-adamantane-1-carboxylic acid (pyridin-4-ylmethyl)-amide], in test [1] (after 5FU 150 mg/kg i.p., ABC294640 10 mg/kg every other day x5, day 12, **P<0.01, FIG. 4), the “number of hematopoietic stem cells in bone marrow” value is “increased significantly”. In addition, in test [1] (setting [4]), the “increase of CD150 HSC pool size” value was “about 2.2 fold”, the “increase of LT-HSC pool size” value was “about 2.2 fold” and the “increase of ST-HSC pool size” value was “about 1.6 fold”. Besides, in test [2], the “number of white blood cells from the peripheral blood” value is listed as “significantly increased”. Besides, the “number of white blood cells in the peripheral blood” value in test [3] was “significantly (*P<0.05, **P<0.01 and ***P<0.001) increased”.
